# Reference: US12391686B2, “Compounds and uses thereof” (Foghorn Therapeutics Inc., priority 2019, dated 2025)
# Target: T1, Nanoluciferase-BRD9 fusion protein (3×FLAG-NLuc-BRD9) in SYO-1 cells (Homo sapiens, UniProt Q9H8M2)
# T1 construct: expressed in transfected cells; host or cells: SYO-1
# T1 sequence (Q9H8M2 1-597): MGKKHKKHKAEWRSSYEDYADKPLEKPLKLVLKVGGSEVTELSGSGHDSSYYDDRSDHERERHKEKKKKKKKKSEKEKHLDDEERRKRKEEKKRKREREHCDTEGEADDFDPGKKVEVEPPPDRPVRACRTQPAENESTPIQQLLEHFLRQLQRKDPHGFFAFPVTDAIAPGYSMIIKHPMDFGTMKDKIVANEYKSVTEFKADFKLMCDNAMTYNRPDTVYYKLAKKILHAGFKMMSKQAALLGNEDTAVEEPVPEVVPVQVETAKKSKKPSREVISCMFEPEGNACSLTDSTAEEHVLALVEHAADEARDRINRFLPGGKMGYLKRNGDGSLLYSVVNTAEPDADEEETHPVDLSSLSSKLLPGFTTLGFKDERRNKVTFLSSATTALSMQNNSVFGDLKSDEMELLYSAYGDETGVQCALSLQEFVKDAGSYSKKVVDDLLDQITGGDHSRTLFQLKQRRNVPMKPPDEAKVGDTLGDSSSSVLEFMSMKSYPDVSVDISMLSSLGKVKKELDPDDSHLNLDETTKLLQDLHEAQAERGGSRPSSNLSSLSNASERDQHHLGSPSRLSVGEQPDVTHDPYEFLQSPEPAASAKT
# Experiment: SYO1 BRD9 NanoLuc Degradation Assay
# Assay type: cell-based
# Details: Table 6B; SYO-1 cells expressing 3×FLAG-NLuc-BRD9, 6 hours incubation, 1 μM top dose; read-out: SYO1 BRD9-NanoLuc degradation IC50
# Description: Procedure: A stable SYO-1 cell line expressing 3×FLAG-NLuc-BRD9 was generated. On day 0 cells were seeded in 30 μL media into each well of 384-well cell culture plates. The seeding density was 8000 cells/well. On day 1, cells were treated with 30 nL DMSO or 30 nL of 3-fold serially DMSO-diluted compounds (10 points in duplicates with 1 μM as final top dose). Subsequently plates were incubated for 6 hours in a standard tissue culture incubator and equilibrated at room temperature for 15 minutes. Nanoluciferase activity was measured by adding 15 μL of freshly prepared Nano-Glo Luciferase Assay Reagent (Promega N1130), shaking the plates for 10 minutes and reading the bioluminescence using an EnVision reader.
# Results: The Inhibition % was calculated using the following formula: % Inhibition=100×(LumHC−Lumsample)/(LumHC−LumLC). DMSO treated cells are employed as High Control (HC) and 1 μM of a known BRD9 degrader standard treated cells are employed as Low Control (LC).
row,Compound,DC50 [nM]
1,COc1cc(-c2cn(C)c(=O)c3cnc(N(C)C)cc23)cc(OC)c1CN1CC(S(=O)(=O)NCCN2CCN(c3ccc4c(c3)C(=O)N(C3CCC(=O)NC3=O)C4=O)CC2)C1 (centres unmarked) [Compound D32],< 10
2,COc1cc(-c2cn(C)c(=O)c3cnc(N(C)C)cc23)cc(OC)c1CN1CC2CN(C(=O)CCOCCOc3ccc4c(c3)C(=O)N(C3CCC(=O)NC3=O)C4=O)CCC21 (centres unmarked) [Compound D33],< 10
3,COc1cc(-c2cn(C)c(=O)c3cnc(N(C)C)cc23)cc(OC)c1CN(C)C12CC(C(=O)NCCCCCOc3cccc4c3C(=O)N(C3CCC(=O)NC3=O)C4=O)(C1)C2 (centres unmarked) [Compound D34],< 10
4,COc1cc(-c2cn(C)c(=O)c3cnc(N(C)C)cc23)cc(OC)c1CN(C)CC12CC(C(=O)NCCCCCNc3cccc4c3C(=O)N(C3CCC(=O)NC3=O)C4=O)(C1)C2 (centres unmarked) [Compound D35],< 10
5,COc1cc(-c2cn(C)c(=O)c3cnc(N(C)C)cc23)cc(OC)c1CN(C)CC12CC(C(=O)NCCCCCOc3cccc4c3C(=O)N(C3CCC(=O)NC3=O)C4=O)(C1)C2 (centres unmarked) [Compound D36],< 10
6,COc1cc(-c2cn(C)c(=O)c3cnc(N(C)C)cc23)cc(OC)c1CN1CC(S(=O)(=O)NCCOCCOCCNc2cccc3c2C(=O)N(C2CCC(=O)NC2=O)C3=O)C1 (centres unmarked) [Compound D37],< 10
7,COc1cc(-c2cn(C)c(=O)c3cnc(N(C)C)cc23)cc(OC)c1CN(C)CC12CC(C(=O)NCCCCCOc3ccc4c(c3)C(=O)N(C3CCC(=O)NC3=O)C4=O)(C1)C2 (centres unmarked) [Compound D38],< 10
8,COc1cc(-c2cn(C)c(=O)c3cnc(N(C)C)cc23)cc(OC)c1CN(C)CC12CC(C(=O)NCCCCCNc3ccc4c(c3)C(=O)N(C3CCC(=O)NC3=O)C4=O)(C1)C2 (centres unmarked) [Compound D39],< 10
9,COc1cc(-c2cn(C)c(=O)c3cnc(N(C)C)cc23)cc(OC)c1CN(C)C12CC(C(=O)NCCCCCOc3ccc4c(c3)C(=O)N(C3CCC(=O)NC3=O)C4=O)(C1)C2 (centres unmarked) [Compound D40],< 10
10,COc1cc(-c2cn(C)c(=O)c3cnc(N(C)C)cc23)cc(F)c1CN1CCC(CCN2CCN(c3ccc4c(c3)C(=O)N(C3CCC(=O)NC3=O)C4=O)CC2)CC1 (centres unmarked) [Compound D41],< 10
11,COc1cc(-c2cn(C)c(=O)c3cnc(N(C)C)cc23)cc(OC)c1CN1CC(CC(=O)N2CCC3(CC2)CC(Oc2ccc4c(c2)C(=O)N(C2CCC(=O)NC2=O)C4=O)C3)C1 (centres unmarked) [Compound D42],< 10
12,COc1cc(-c2cn(C)c(=O)c3cnc(N(C)C)cc23)cc(OC)c1CN1CC(CCN2CCN(c3ccc4c(c3)C(=O)N(C3CCC(=O)NC3=O)C4=O)CC2)C1 (centres unmarked) [Compound D43],≥ 1000
13,COc1cc(-c2cn(C)c(=O)c3cnc(N(C)C)cc23)cc(OC)c1CN1CC(CCCN2CCN(c3ccc4c(c3)C(=O)N(C3CCC(=O)NC3=O)C4=O)CC2)C1 (centres unmarked) [Compound D44],10 to 100
14,COc1cc(-c2cn(C)c(=O)c3cnc(N(C)C)cc23)c2c(c1)N(CCCCCCCCOc1ccc3c(c1)C(=O)N(C1CCC(=O)NC1=O)C3=O)CC2 (centres unmarked) [Compound D45],100 to 1000
15,COc1cc(-c2cn(C)c(=O)c3cnc(N(C)C)cc23)c2c(c1)N(CCCCCN1CCC3(CC1)CC(Oc1ccc4c(c1)C(=O)N(C1CCC(=O)NC1=O)C4=O)C3)CC2 (centres unmarked) [Compound D46],< 10
16,COc1cc(-c2cn(C)c(=O)c3cnc(N(C)C)cc23)c2c(c1)N(CCCCCCCCOc1cccc3c1C(=O)N(C1CCC(=O)NC1=O)C3=O)CC2 (centres unmarked) [Compound D47],10 to 100
17,COc1cc(-c2cn(C)c(=O)c3cnc(N(C)C)cc23)cnc1CN1CCC(CCN2CCN(c3ccc4c(c3)C(=O)N(C3CCC(=O)NC3=O)C4=O)CC2)CC1 (centres unmarked) [Compound D48],< 10
18,COc1cc(-c2cn(C)c(=O)c3cnc(N(C)C)cc23)cc(OC)c1CN1CC(CN2CC3(CCN(c4ccc5c(c4)C(=O)N(C4CCC(=O)NC4=O)C5=O)C3)C2)C1 (centres unmarked) [Compound D49],< 10
19,COc1cc(-c2cn(C)c(=O)c3cnc(N(C)C)cc23)cc(OC)c1CN1CC(CN2CCC3(CC2)CN(c2ccc4c(c2)C(=O)N(C2CCC(=O)NC2=O)C4=O)C3)C1 (centres unmarked) [Compound D50],< 10
20,COc1cc(-c2cn(C)c(=O)c3cnc(N(C)C)cc23)cc(OC)c1CN1CC(CN2CCC3(C2)CN(c2ccc4c(c2)C(=O)N(C2CCC(=O)NC2=O)C4=O)C3)C1 (centres unmarked) [Compound D51],< 10
21,COc1cc(-c2cn(C)c(=O)c3cnc(N(C)C)cc23)cc(OC)c1CN1CCC(N2CCN(c3ccc4c(c3)C(=O)N(C3CCC(=O)NC3=O)C4=O)CC2)CC1 (centres unmarked) [Compound D52],< 10

row,Compound,DC50 [nM]
1,COc1cc(-c2cn(C)c(=O)c3cnc(N(C)C)cc23)cc(OC)c1CN1CCN(C2CCN(c3ccc4c(c3)C(=O)N(C3CCC(=O)NC3=O)C4=O)CC2)CC1 (centres unmarked) [Compound D53],< 10
2,COc1cc(-c2cn(C)c(=O)c3cnc(N(C)C)cc23)cc(OC)c1CN1CCC(CN2CCC3(CC2)CC(Oc2ccc4c(c2)C(=O)N(C2CCC(=O)NC2=O)C4=O)C3)CC1 (centres unmarked) [Compound D54],< 10
3,COc1cc(-c2cn(C)c(=O)c3cnc(N(C)C)cc23)cc(OC)c1CN1CCC(C(=O)N2CCC3(CC2)CC(Oc2ccc4c(c2)C(=O)N(C2CCC(=O)NC2=O)C4=O)C3)CC1 (centres unmarked) [Compound D55],< 10
4,COc1cc(-c2cn(C)c(=O)c3cnc(N(C)C)cc23)cc(OC)c1CN1CCC2(CC1)CC(N1CCN(c3ccc4c(c3)C(=O)N(C3CCC(=O)NC3=O)C4=O)CC1)C2 (centres unmarked) [Compound D56],< 10
5,COc1cc(-c2cn(C)c(=O)c3cnc(N(C)C)cc23)cc(OC)c1CN1CCC(CN2CCN(c3ccc4c(c3)C(=O)N(C3CCC(=O)NC3=O)C4=O)CC2)CC1 (centres unmarked) [Compound D57],< 10
6,COc1cc(-c2cn(C)c(=O)c3cnc(N(C)C)cc23)cc(OC)c1CN1CCC2(CC1)CC(Oc1ccc3c(c1)C(=O)N(C1CCC(=O)NC1=O)C3=O)C2 (centres unmarked) [Compound D58],< 10
7,COc1cc(-c2cn(C)c(=O)c3cnc(N(C)C)cc23)cc(OC)c1CN1CCC(CCN2Cc3cc4c(cc3C2)C(=O)N(C2CCC(=O)NC2=O)C4=O)CC1 (centres unmarked) [Compound D59],< 10
8,COc1cc(-c2cn(C)c(=O)c3cnc(N(C)C)cc23)cc(OC)c1CN1CCC(CN2Cc3cc4c(cc3C2)C(=O)N(C2CCC(=O)NC2=O)C4=O)CC1 (centres unmarked) [Compound D61],< 10
9,COc1cc(-c2cn(C)c(=O)c3cnc(N(C)C)cc23)cc(OC)c1CN1CCC(CCCN2Cc3cc4c(cc3C2)C(=O)N(C2CCC(=O)NC2=O)C4=O)CC1 (centres unmarked) [Compound D62],< 10
10,COc1cc(-c2cn(C)c(=O)c3cnc(N(C)C)cc23)cc(OC)c1CN1CC2(CC(N3Cc4cc5c(cc4C3)C(=O)N(C3CCC(=O)NC3=O)C5=O)C2)C1 (centres unmarked) [Compound D63],< 10
11,COc1cc(-c2cn(C)c(=O)c3cnc(N(C)C)cc23)cc(OC)c1CN1CC2(CCC(N3Cc4cc5c(cc4C3)C(=O)N(C3CCC(=O)NC3=O)C5=O)CC2)C1 (centres unmarked) [Compound D64],100 to 1000
12,COc1cc(-c2cn(C)c(=O)c3cnc(N(C)C)cc23)cc(OC)c1CN1CCC2(CC1)CCN(CC#Cc1ccc3c(c1)C(=O)N(C1CCC(=O)NC1=O)C3=O)C2 (centres unmarked) [Compound D65],< 10
13,COc1cc(-c2cn(C)c(=O)c3cnc(N(C)C)cc23)cc(OC)c1CN1CC(C(=O)N2CC3(CCN(c4ccc5c(c4)C(=O)N(C4CCC(=O)NC4=O)C5=O)C3)C2)C1 (centres unmarked) [Compound D66],< 10
14,COc1cc(-c2cn(C)c(=O)c3cnc(N(C)C)cc23)cc(OC)c1CN1CC(CN2CCC3(CC2)CC(Oc2ccc4c(c2)C(=O)N(C2CCC(=O)NC2=O)C4=O)C3)C1 (centres unmarked) [Compound D67],< 10
15,COc1cc(-c2cn(C)c(=O)c3cnc(N(C)C)cc23)cc(OC)c1CN1CCC2(CC1)CN(c1ccc3c(c1)C(=O)N(C1CCC(=O)NC1=O)C3=O)C2 (centres unmarked) [Compound D68],< 10
16,COc1cc(-c2cn(C)c(=O)c3cnc(N(C)C)cc23)cc(OC)c1CN1CC(N2CCN(c3ccc4c(c3)C(=O)N(C3CCC(=O)NC3=O)C4=O)CC2)C1 (centres unmarked) [Compound D69],< 10
17,COc1cc(-c2cn(C)c(=O)c3cnc(N(C)C)cc23)cc(OC)c1CN1CCN(c2ccc3c(c2)C(=O)N(C2CCC(=O)NC2=O)C3=O)CC1 (centres unmarked) [Compound D70],< 10
18,COc1cc(-c2cn(C)c(=O)c3cnc(N(C)C)cc23)cc(OC)c1CN1CCN(C(C)COc2cccc3c2C(=O)N(C2CCC(=O)NC2=O)C3=O)CC1 (centres unmarked) [Compound D71],< 10
19,COc1cc(-c2cn(C)c(=O)c3cnc(N(C)C)cc23)cc(OC)c1CN1CC2(C1)CN(C(C)(C)C#Cc1ccc3c(c1)C(=O)N(C1CCC(=O)NC1=O)C3=O)C2 (centres unmarked) [Compound D72],< 10
20,COc1cc(-c2cn(C)c(=O)c3cnc(N(C)C)cc23)cc(OC)c1CN1CC2(CCN(C(C)(C)C#Cc3ccc4c(c3)C(=O)N(C3CCC(=O)NC3=O)C4=O)CC2)C1 (centres unmarked) [Compound D73],< 10
